Square brackets hold non-standard residues; d marks the D form. Ends that are not written are not given here. Peptide text beside a SMILES is read from it. * marks the point of attachment. Bip = N[C@@H](Cc1ccc(-c2ccccc2)cc1)C(=O)O; Oic = O=C(O)[C@@H]1C[C@@H]2CCCC[C@@H]2N1; X3 = NC(=O)C[C@H](N*)C(c1ccccc1)c1ccccc1; Dip = N[C@H](C(=O)O)C(c1ccccc1)c1ccccc1; β3hF = N[C@H](CC(=O)O)Cc1ccccc1; β3hP = O=C(O)C[C@@H]1CCCN1; StBu = CC(C)(C)S*; tBu = CC(C)(C)*
Experiments:
[1] = target: T1, ferroportin fused to green fluorescent protein (ECR293/Fpn-GFP cells) (Mus musculus, UniProt Q9JHI9); test: Flow cytometry of ferroportin-GFP internalization and degradation in ECR293/Fpn-GFP cells; assay type: cell-based; conditions: for relative hepcidin activity of substitutions in Hep25: Hep25 variants, FIG. 1, 2A, 2B; for DC50 / EC50: concentration eliciting 50% of maximal loss of fluorescence generated by reference Hep25, 24 hours; for DC50: read-out: EC50 (the source's name)
T1 sequence (Q9JHI9 1-570): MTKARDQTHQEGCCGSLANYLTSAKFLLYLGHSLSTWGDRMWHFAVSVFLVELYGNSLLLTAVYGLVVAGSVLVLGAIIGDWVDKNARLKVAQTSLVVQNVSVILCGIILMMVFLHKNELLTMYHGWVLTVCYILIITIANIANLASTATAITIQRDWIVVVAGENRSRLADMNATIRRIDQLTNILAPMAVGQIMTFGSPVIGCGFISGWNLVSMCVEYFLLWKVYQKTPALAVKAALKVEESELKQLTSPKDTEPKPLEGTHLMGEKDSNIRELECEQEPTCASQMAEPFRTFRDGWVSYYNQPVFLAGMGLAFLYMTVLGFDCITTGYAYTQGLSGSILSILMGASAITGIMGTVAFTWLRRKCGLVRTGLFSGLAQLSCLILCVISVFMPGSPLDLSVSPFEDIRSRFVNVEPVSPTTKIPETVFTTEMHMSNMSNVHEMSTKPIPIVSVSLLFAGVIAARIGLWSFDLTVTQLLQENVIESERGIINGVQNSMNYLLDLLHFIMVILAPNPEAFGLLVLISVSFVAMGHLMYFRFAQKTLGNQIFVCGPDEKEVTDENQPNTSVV
Description: In vitro activity may be measured by the dose-dependent loss of fluorescence of cells engineered to display ferroportin fused to green fluorescent protein as in Nemeth et al. (2006) Blood 107:328-33. […]
FLOW CYTOMETRY. The activity of peptides of the present invention was measured by flow cytometry as previously described. See Nemeth et al. (2006) Blood 107:328-333, which is herein incorporated by reference. ECR293/Fpn-GFP, a cell line stably transfected with a ponasterone-inducible ferroportin construct tagged at the C-terminus with green fluorescent protein was used. See Nemeth et al. (2004) Science 306:2090-2093, which is herein incorporated by reference. Briefly, the cells were plated on poly-D-lysine coated plates in the presence of 20 μM FAC, with or without 10 μM ponasterone. After 24 hours, ponasterone was washed off, and cells were treated with peptides for 24 hours. Cells were then trypsinized and resuspended at 1×10^6 cells/ml, and the intensity of green fluorescence was analyzed by flow cytometry. […] Cells not induced with ponasterone to express Fpn-GFP were used to establish a gate to exclude background fluorescence. Cells induced with ponasterone, but not treated with any peptides, were used as the positive control. Each peptide was tested over the range of concentrations (0, 0.01, 0.03, 0.1, 0.3, 1, 3 and 10 μM). Each peptide treatment was repeated independently 3 to 6 times.

C57/B16J mice = test: Serum iron assay in mice after peptide administration; assay type: in vivo
Description: Serum iron assay. The decrease in serum iron after peptide administration is the principal measure of hepcidin activity. Thus, as provided herein, the hepcidin activity of selected peptides of the present invention were assayed in vivo by measuring serum iron in test subjects. […] Two weeks before the experiment, the mice were switched to a diet containing about 2-4 ppm iron (Harlan Teklad, Indianapolis, Ind.) in order to suppress endogenous hepcidin. Peptide stocks were diluted to desired concentrations in sterile phosphate buffered saline (PBS) or other diluents as described next. […] Mice were sacrificed 4 hours later, blood was collected by cardiac puncture, and serum was separated using MICROTAINER tubes (Becton Dickinson, Franklin Lakes, N.J.). Serum iron was determined by using a colorimetric assay (Diagnostic Chemicals, Oxford, Conn.), which was modified for the microplate format so that 10 μl serum was used per measurement. The results were expressed as the percentage of decrease in serum iron when compared with the average value of serum iron levels in PBS-treated mice.

[2] = flow-cytometry assay of ferroportin-GFP internalization, FIG. 3

F4Y: Hep25 with F4 substituted by tyrosine (DTHYPICIFCCGCCHRSKCGMCCKT)
relative hepcidin activity of substitutions in Hep25 [1]: substantial loss of hepcidin activity

DTHFPIAIFC-NH2 [Hep10]
hepcidin activity of mini-hepcidins relative to Hep25 ([1]; FIG. 3 and FIG. 4): quite active | DC50 [1]: 0.1 µM | potency relative to Hep25 on a mass basis (times less potent) [1, 2]: about 4 times | potency relative to Hep25 on a molar basis (times less potent) [1, 2]: about 10 times

CC[C@H](C)[C@H](NC(=O)[C@H](CS)NC(=O)[C@@H](NC(=O)[C@@H]1CCCN1C(=O)[C@H](Cc1ccccc1)NC(=O)[C@H](Cc1c[nH]cn1)NC(=O)[C@@H](NC(=O)[C@@H](N)CC(=O)O)[C@@H](C)O)[C@@H](C)CC)C(=O)N[C@H](C(N)=O)C(c1ccccc1)c1ccccc1 [F9Dpa] (H-DTHFPICI[Dip]-NH2)
DC50 [1]: 0.07 µM

CCCCCCCCCCCCCCCC(=O)NCCOCCOCCOCCOCCOCCOCCOCCOCCOCCOCCOCCOCCC(=O)N[C@H](Cc1ccccc1)C(=O)N[C@@H](C(=O)N[C@H](CS)C(=O)N[C@@H](C(=O)N1CCC[C@@H]1C(=O)N[C@H](Cc1ccccc1)C(=O)N[C@H](Cc1c[nH]cn1)C(=O)N[C@@H](C(=O)N[C@H](CC(=O)O)C(N)=O)[C@H](C)O)[C@H](C)CC)[C@H](C)CC [Pr27]
serum iron (C57/B16J mice; i.p., 20 nmoles in PBS, 4 hours): serum iron decrease comparable to that caused by i.p. administration of 20 nmoles Hep25 | serum iron (C57/B16J mice; i.p., 20 nmoles in liposomal solution, 4 hours): serum iron decrease similar to that caused by i.p. administration of 20 nmoles Hep25 | serum iron (C57/B16J mice; i.p., 200 nmoles in PBS, 4 hours): even greater decrease in serum iron concentrations | serum iron (C57/B16J mice; oral by gavage, 200 nmoles in cremophore EL solution, vs PBS in same formulation): caused a decrease in serum iron in mice

CC[C@H](C)[C@@H]1NC(=O)[C@@H](NC(=O)[C@@H](NC(=O)[C@@H]2CCCN2C(=O)[C@H](Cc2ccccc2)NC(=O)[C@H](Cc2c[nH]cn2)NC(=O)[C@@H](NC(=O)[C@@H](N)CC(=O)O)[C@@H](C)O)[C@@H](C)CC)CSSC[C@@H](C(=O)N[C@@H](CCCCN)C(=O)N[C@H](C(=O)O)[C@@H](C)O)NC(=O)[C@@H]2CSSC[C@@H]3NC(=O)[C@@H]4CSSC[C@H](NC(=O)[C@H](Cc5ccccc5)NC1=O)C(=O)N[C@@H](CSSC[C@H](NC(=O)[C@H](CCCCN)NC(=O)[C@H](CO)NC(=O)[C@H](CCCNC(=N)N)NC(=O)[C@H](Cc1c[nH]cn1)NC3=O)C(=O)NCC(=O)N[C@@H](CCSC)C(=O)N2)C(=O)NCC(=O)N4 [Hep25, reference compound]
DC50 [1]: 0.01 µM

T2A: Hep25 with alanine substitution of residue T2 (DAHFPICIFCCGCCHRSKCGMCCKT)
relative hepcidin activity of substitutions in Hep25 [1]: did not substantially impact hepcidin activity

CC[C@H](C)[C@H](NC(=O)[C@H](CS)NC(=O)[C@@H](NC(=O)[C@@H]1CCCN1C(=O)[C@H](Cc1ccccc1)NC(=O)[C@H](Cc1c[nH]cn1)NC(=O)[C@@H](NC(=O)[C@@H](N)CC(=O)O)[C@@H](C)O)[C@@H](C)CC)C(=O)N[C@@H](Cc1ccc(-c2ccccc2)cc1)C(N)=O [F9Bip] (H-DTHFPICI[Bip]-NH2; N-terminus assumed)
DC50 [1]: 0.15 µM

CC[C@H](C)[C@H](NC(=O)[C@H](CSC(C)(C)C)NC(=O)[C@@H](NC(=O)[C@@H]1CCCN1C(=O)[C@H](C)NC(=O)[C@H](Cc1c[nH]cn1)NC(=O)[C@@H](NC(=O)[C@@H](N)CC(=O)O)[C@@H](C)O)[C@@H](C)CC)C(=O)N[C@@H](Cc1ccccc1)C(N)=O [Hep9C7-tBut] (H-DTHAPIC(tBu)IF-NH2)
DC50 [1]: > 10 µM

DTHAPICIF-NH2 [Hep9F4A]
DC50 [1]: > 3 µM

CC[C@H](C)[C@H](NC(=O)[C@@H]1CCCN1C(=O)[C@H](Cc1ccccc1)NC(=O)[C@H](Cc1c[nH]cn1)NC(=O)[C@@H](NC(=O)[C@@H](N)CC(=O)O)[C@@H](C)O)C(=O)N[C@@H](C(=O)N[C@H](C(=O)N[C@@H](Cc1ccccc1)C(N)=O)[C@@H](C)CC)C(C)(C)S [(D)Pen]
DC50 [1]: 3 µM

CC[C@H](C)[C@H](NC(=O)[C@H](CS)NC(=O)[C@@H](NC(=O)[C@@H]1CCCN1C(=O)[C@H](Cc1ccccc1)NC(=O)[C@H](Cc1c[nH]cn1)NC(=O)[C@@H](NC(=O)[C@@H](N)CC(=O)O)[C@@H](C)O)[C@@H](C)CC)C(=O)N[C@@H](Cc1ccccc1)C(=O)N1CCC[C@H]1CC(=O)N1CCC[C@H]1C(=O)N[C@@H](CCCNC(=N)N)C(N)=O [Pr16]
EC50 [1]: 0.05 µM

CC[C@H](C)[C@H](NC(=O)[C@H](CS)NC(=O)[C@@H](NC(=O)[C@@H]1CCCN1C(=O)[C@H](Cc1ccccc1)NC(=O)[C@H](Cc1c[nH]cn1)NC(=O)[C@@H](NC(=O)[C@@H](N)CC(=O)O)[C@@H](C)O)[C@@H](C)CC)C(=O)N[C@H](CC(=O)N1CCC[C@@H]1C(=O)N1CCC[C@H]1CC(=O)N[C@@H](CCCNC(=N)N)C(N)=O)Cc1ccccc1 [Pr22] (H-DTHFPICI[β3hF][dP][β3hP]R-NH2)
EC50 [1]: 0.6 µM

CC[C@H](C)[C@H](NC(=O)[C@H](CS)NC(=O)[C@@H](NC(=O)[C@@H]1CCCN1C(=O)[C@H](Cc1ccccc1)NC(=O)[C@H](Cc1c[nH]cn1)NC(=O)[C@@H](NC(=O)[C@@H](N)CC(=O)O)[C@@H](C)O)[C@@H](C)CC)C(=O)N[C@@H](CC(N)=O)C(c1ccccc1)c1ccccc1 [F9bhDpa] (H-DTHFPICI-X3)
EC50 [1]: 0.1 µM

CC[C@H](C)[C@H](NC(=O)[C@H](CS)NC(=O)[C@@H](NC(=O)[C@@H]1CCCN1C(=O)[C@H](Cc1ccccc1)NC(=O)[C@H](Cc1c[nH]cn1)NC(=O)[C@@H](NC(=O)[C@@H](N)CC(=O)O)[C@@H](C)O)[C@@H](C)CC)C(=O)N[C@@H](Cc1ccccc1)C(=O)N1CCC[C@H]1CC(=O)N1CCC[C@H]1C(=O)N[C@@H](CCCCN)C(N)=O [Pr15]
EC50 [1]: 0.15 µM

DTHFPISIF-NH2 [Hep9-C7S]
DC50 [1]: > 10 µM

C[C@@H](O)[C@H](NC(=O)[C@@H](N)CC(=O)O)C(=O)N[C@@H](Cc1c[nH]cn1)C(=O)N[C@H](C(=O)N1CCC[C@H]1C(=O)N[C@H](CCCNC(=N)N)C(=O)N[C@@H](CS)C(=O)N[C@H](CCCNC(=N)N)C(=O)N[C@H](C(N)=O)C(c1ccccc1)c1ccccc1)C(c1ccccc1)c1ccccc1 [Pr43] (H-DTH[Dip]P[dR]C[dR][Dip]-NH2)
EC50 [1]: 0.2 µM

HFPICIF-NH2 [Hep7ΔDT]
DC50 [1]: 0.7 µM

CC[C@H](C)[C@H](NC(=O)[C@H](CS)NC(=O)[C@@H](NC(=O)[C@@H]1C[C@@H]2CCCC[C@@H]2N1C(=O)[C@@H](NC(=O)[C@H](Cc1c[nH]cn1)NC(=O)[C@@H](NC(=O)[C@@H](N)CC(=O)O)[C@@H](C)O)C(c1ccccc1)c1ccccc1)[C@@H](C)CC)C(=O)N[C@H](C(N)=O)C(c1ccccc1)c1ccccc1 [Pr45] (H-DTH[Dip][Oic]ICI[Dip]-NH2; N-terminus assumed)
DC50 [1]: 0.15 µM

CC[C@H](C)[C@H](NC(=O)[C@H](CS)NC(=O)[C@@H](NC(=O)[C@@H]1CCCN1C(=O)[C@H](Cc1ccccc1)NC(=O)[C@H](Cc1c[nH]cn1)NC(=O)[C@@H](NC(=O)[C@@H](N)CC(=O)O)[C@@H](C)O)[C@@H](C)CC)C(=O)N[C@@H](Cc1ccccc1)C(=O)N1CCC[C@@H]1C(=O)N1CCC[C@H]1C(=O)N[C@@H](CCCCN)C(N)=O [Pr13]
DC50 [1]: 0.1 µM

DTHFPICI-NH2 [Hep8]
DC50 [1]: 2 µM

CC[C@H](C)[C@H](NC(=O)[C@H](CS)NC(=O)[C@@H](NC(=O)[C@@H]1CCCN1C(=O)[C@H](Cc1ccc(-c2ccccc2)cc1)NC(=O)[C@H](Cc1c[nH]cn1)NC(=O)[C@@H](NC(=O)[C@@H](N)CC(=O)O)[C@@H](C)O)[C@@H](C)CC)C(=O)N[C@@H](Cc1ccccc1)C(N)=O [F4Bip] (H-DTH[Bip]PICIF-NH2; N-terminus assumed)
DC50 [1]: 0.15 µM

CC[C@H](C)[C@H](NC(=O)[C@H](CSSC(C)(C)C)NC(=O)[C@@H](NC(=O)[C@@H]1CCCN1C(=O)[C@H](C)NC(=O)[C@H](Cc1c[nH]cn1)NC(=O)[C@@H](NC(=O)[C@@H](N)CC(=O)O)[C@@H](C)O)[C@@H](C)CC)C(=O)N[C@@H](Cc1ccccc1)C(N)=O [Hep9C7-SStBut] (H-DTHAPIC(StBu)IF-NH2)
DC50 [1]: 0.7 µM

DTHFPIAIF-NH2 [Hep9-C7A]
DC50 [1]: > 10 µM

HFPICI-NH2 [Hep6]
DC50 [1]: 1 µM

From US20130203662A1, “Mini-Hepcidin Peptides and Methods of Using Thereof” (priority 2008, published 2013)
